From patent publication US9144569B2, “Methods of administering an aromatase inhibitor, prostaglandin and GnRH for regulating ovulation in cattle” (UNIVERSITY OF SASKATCHEWAN, priority 2010, dated 2015)
Like-named read-outs stand apart in the source and are kept apart here.

Experiments:
[1] = system: plasma progesterone; assay: Example II: plasma progesterone, 3-day letrozole regimen; format: in vivo, cattle; conditions: 3-day regimen, groups combined; numerically higher
Description: Four days after follicular ablation, heifers were given 500 μg of cloprostenol (PGF, Estrumate, Schering-Plough Animal Health, Pointe-Claire, QC, Canada) intramuscularly (im) to induce regression of the CL and to synchronize ovulation. The experiment was performed in two replicates (n=20-27 per replicate) and each heifer was used only once. In replicate 1, heifers were assigned randomly at the time of ovulation (Day 0) to the following groups and given a 3-day regimen of letrozole from Days 1 to 3 (n=5), Days 3 to 5 (n=5), Days 5 to 7 (n=5), or no treatment (control group, n=5). In replicate 2, heifers were similarly assigned to groups and given letrozole from Days 1 to 3, (n=5), Days 3 to 5 (n=4), or Days 5 to 7 (n=4), but untreated control heifers were arranged in three sub-groups to serve as contemporaneous controls for each letrozole-group during intensive blood sampling periods (i.e., control Days 1 to 3, n=4; control Days 3 to 5, n=4; and control Days 5 to 7, n=5). For practical purposes, the total dose of letrozole (250 μg/kg) was calculated on the basis of an average weight of 350 kg for all heifers and administered intravenously in daily divided doses over 3 days (85 μg/kg per day). […]
Plasma progesterone concentrations were determined in duplicate using a commercial solid-phase kit (Coat-A-Count; Diagnostic Products Corporation, Los Angeles, Calif., USA). […]

[2] = Example II: plasma letrozole concentration during 3-day regimen (HPLC/MS); format: in vivo, cattle; conditions: for plasma letrozole concentration, overall mean: 85 μg/kg/day iv
Description: Four days after follicular ablation, heifers were given 500 μg of cloprostenol (PGF, Estrumate, Schering-Plough Animal Health, Pointe-Claire, QC, Canada) intramuscularly (im) to induce regression of the CL and to synchronize ovulation. The experiment was performed in two replicates (n=20-27 per replicate) and each heifer was used only once. In replicate 1, heifers were assigned randomly at the time of ovulation (Day 0) to the following groups and given a 3-day regimen of letrozole from Days 1 to 3 (n=5), Days 3 to 5 (n=5), Days 5 to 7 (n=5), or no treatment (control group, n=5). In replicate 2, heifers were similarly assigned to groups and given letrozole from Days 1 to 3, (n=5), Days 3 to 5 (n=4), or Days 5 to 7 (n=4), but untreated control heifers were arranged in three sub-groups to serve as contemporaneous controls for each letrozole-group during intensive blood sampling periods (i.e., control Days 1 to 3, n=4; control Days 3 to 5, n=4; and control Days 5 to 7, n=5). For practical purposes, the total dose of letrozole (250 μg/kg) was calculated on the basis of an average weight of 350 kg for all heifers and administered intravenously in daily divided doses over 3 days (85 μg/kg per day). For intravenous injection, letrozole was prepared in 95% ethanol to a final concentration of 5 mg/ml, resulting in an injection volume of 6 mL/day.
Blood samples were collected by jugular or coccygeal venipuncture into 10 ml heparinised, vacuum tubes (Vacutainer tubes; Becton Dickinson Vacutainer Systems, Franklin Lakes, N.J., USA). Blood samples were collected daily from pre-treatment ovulation to post-treatment ovulation. In replicate 1, additional samples were collected from letrozole-treated heifers every 12 hours from the beginning of treatment to first wave emergence. In replicate 2, heifers were sampled at 15 minute intervals for the first 8 hours after the second dose of letrozole (i.e., second day of treatment) using an indwelling jugular catheter, as described previously. Blood samples were centrifuged at 1500×g for 20 minutes, and plasma was separated and stored in plastic tubes at −20° C.
Plasma concentrations of letrozole were determined from samples collected every 12 hours from pre-treatment to one day after cessation of treatment using high performance liquid chromatographytandem mass spectrometry (HPLC/MS) as described in Chapter 4, Section 4.3.6.

[3] = system: women; assay: Letrozole at expected time of ovulation in women; format: in vivo, human; conditions: women treated at 18 mm follicle diameter
[4] = system: Hereford-cross beef heifers; assay: Example II: computer-assisted ultrasound image analysis of CL and dominant follicle; format: in vivo, cattle
Description: Ultrasound images from a subset of letrozole-treated (n=4-5 per group) and control (n=6) heifers were recorded throughout the duration of treatment for computer-assisted image analysis. Images were analyzed using a series of custom-developed computer algorithms optimized for ultrasonography ([…] Version 2.8© Saskatoon, Saskatchewan) on a Sun Sparc Station (Sun Microsystems, MT View, Calif.) computer. Echotexture was defined in terms of mean pixel value and pixel heterogeneity. Mean pixel values were quantified using a grey-scale ranging from 0 (black) to 255 (white). The pixel heterogeneity was the standard deviation of grey-scale values of all the pixels within the user-defined region of measurement. Spot analysis of the follicular antrum and corpus luteum, and line analysis of the peripheral antrum, follicular wall and stroma were done as previously described. For spot analyses, the follicular antrum and the CL wall were divided into four quadrants and the sampling area encompassed 75 to 80% of each quadrant. For line analyses, a straight line was drawn transversing the follicular wall from peripheral antrum to stroma and the pixel values along that line were measured in areas located within the 10 and 2 o'clock position of the follicles.
Statistical analyses were done using the Statistical Analysis System software package (SAS Learning Edition 9.1, 2006; SAS Institute Inc., Cary, N.C., USA). Time-series hormone data, plasma letrozole concentration, and follicular and luteal diameter profiles were analysed by repeated measures, using the PROC MIXED procedure. The main effects were treatment, time, and their interactions. […] Single point measurements (interwave and interovulatory intervals, interval from ovulation to onset of CL regression, mean and basal LH concentrations, LH pulse amplitude and frequency, and pharmacokinetic parameters for letrozole) were analysed by analysis of variance. […] If significant main effects or interactions (P≦0.05) were detected, Tukey's post-hoc test was used for multiple comparisons.

[5] = cited from earlier work
[6] = 85 μg/kg/day iv for 3 days, all three groups

Compound: N#Cc1ccc(C(c2ccc(C#N)cc2)n2cncn2)cc1 [Letrozole, letrozole]
- differences in plasma progesterone concentrations vs control [1]: not significant
- time after initiation of treatment by which plasma letrozole was elevated [2, 6]: ≤ 12 h
- time by which plasma letrozole declined to approximately half peak values [2, 6]: ≤ 108 h
- time by which plasma letrozole reached peak levels [2, 6]: ≤ 60 h
- plasma letrozole concentration, overall mean ([2]; Days 1 to 3): 68.6 ± 4.79 ng/mL
- plasma letrozole concentration, overall mean ([2]; Days 3 to 5): 43.9 ± 4.75 ng/mL
- plasma letrozole concentration, overall mean ([2]; Days 5 to 7): 55.6 ± 4.75 ng/mL
- mean circulating level of letrozole during the first 96 hours ([2]; 250 μg/kg, 3-day protocol): 60.8 ± 3.36 ng/mL
- concentration at 96 hours ([2]; female, bovine, plasma, intravenous, 85 μg/kg per day, 250 μg/kg divided in a 3-day regimen, read-out: mean concentration of letrozole in the circulation at 96 hours): 51.6 ± 4.33 ng/mL
- ovulation earlier than controls [3]: 24 h
- mean pixel values and heterogeneity of the dominant follicle antrum (spot analysis) ([4]; 3-day regimen, any of the three periods): not affected significantly
- mean pixel values of the dominant follicle wall (line analysis), pre- to post-treatment ([4]; treated Days 1 to 3, P<0.06): increased
- mean pixel values or heterogeneity along the follicular wall (line analysis) ([4]; treated Days 3 to 5 (printed Days 3 and 5)): no effect
- mean pixel values or heterogeneity along the follicular wall (line analysis) ([4]; treated Days 5 to 7 (printed Days 5 and 7)): no effect
- half-life of letrozole ([5]; in humans [46]): approximately 2 days
- half-life of letrozole ([5]; in women [41, 61]): 48 h
- mean residence time ([5]; in women [41]): 59 h
- volume of distribution ([5]; in women [41]): 1.87 L/kg
